Measured values as given in patent US10500166B2, “Methods for the treatment of erectile dysfunction using fispemifene” (QUATRX PHARMACEUTICALS, priority 2007, dated 2019).

Experiments:
Assay type in all cases: in vivo, human
[1] = system: free testosterone; assay: Example 3 study in hypogonadal men: serum free testosterone measured by equilibrium dialysis (ITT)
Protocol: FIG. 6 depicts a graph of the data of the study from Example 3 showing serum free testosterone levels (ng/dL) measured by equilibrium dialysis over time for each of the treatment groups. The bars from left to right for each of the BL (baseline), 2 week, 4 week, and 6 week timepoints (the 6 week timepoint occurred 2 weeks after the discontinuation of study drug at week 4) correspond to the placebo, 100 mg, 200 mg, and 300 mg/day doses, respectively;
A randomized, double-blind, placebo controlled, parallel-group study of once-daily doses of fispemifene (100, 200, and 300 mg/day) given for 4 weeks was conducted in a population of hypogonadal men. Subjects were required to meet all of the following inclusion criteria at screening and prior to randomization to be eligible for the study:
There were 77 subjects total. The number of subjects randomized to the 100 mg fispemifene, 200 mg fispemifene, 300 mg fispemifene, and placebo arms were 21, 21, 19, and 16, respectively.
Subjects were randomly assigned to one of four treatment groups in a 1:1:1:1 ratio: • Treatment A (100 mg): fispemifene 100 mg+placebo+placebo; • Treatment B (200 mg): fispemifene 100 mg+fispemifene 100 mg+placebo; • Treatment C (300 mg): fispemifene 100 mg+fispemifene 100 mg+fispemifene 100 mg; and • Treatment D (Placebo): placebo+placebo+placebo.
Subjects took one dose (three capsules) of study medication once a day at home for 4 weeks. Capsules were to be taken in the morning immediately after breakfast, with the exception of the morning of the Week 4 visit. Capsules were not to be taken on the morning of the Week 4 visit because trough plasma levels of fispemifene were determined by a blood sample taken at this visit. Each subject was randomly assigned to treatment with one of the 3 different dose regimens of fispemifene or placebo vehicle. Each subject received a 4 week supply of study drug.
Blood samples were taken from the subjects within 1 week prior to dosing with study drug to establish baseline values; after 2 and 4 weeks of randomization; and 2 weeks after the last dose of study drug. Serum was prepared from those samples and used to determine the mean % change from baseline in total testosterone, free testosterone, SHBG (sex hormone-binding globulin), DHT (dihydrotestosterone), E2 (estradiol), LH (luteinizing hormone), FSH (follicle stimulating hormone), and inhibin B.
1. Percent change from baseline in free testosterone and calculated free testosterone at Weeks 2, 4, and 6;

[2] = Phase I repeated dose study 101-50202: safety and tolerability
Protocol: A suitable dosage is expected to be in a range of about 5 mg/day to about 1500 mg/day. In a phase I repeated dose study, twenty-three healthy men aged 50 to 70 years received daily 10 mg, 30 mg 100 mg and 300 mg dosages of fispemifene for 28 days. […] All other adverse events were single cases. Fispemifene at the 100 and 300 mg/day dose levels increased serum total testosterone levels 32% and 75% respectively. Thus, a preferred dosage range of fispemifene to treat ED is expected to be 10 to 1000 mg/day.
(§1) Fispemifene has been studied in two phase I studies in humans—in a single dose and a repeated dose study. Effect of fispemifene on hormone levels was one main focus of the repeated dose study. The phase I repeated dose study (number 101-50202) was a randomized, double-blind, placebo-controlled 28-day dose-escalation study performed in 31 healthy, elderly men, aged 50-68 years. The main objective of the study was to investigate the tolerability, safety and pharmacokinetics of fispemifene after repeated oral doses, but the study focused also on the effects of fispemifene on serum free and total testosterone, estradiol, and other relevant hormones. The fispemifene doses 10, 30, 100 and 300 mg per day and placebo were administered once every morning as capsules containing 10 mg or 100 mg of fispemifene, or placebo.
(§2) The variables for safety and tolerability were adverse events, vital signs, 12-lead ECG, clinical laboratory evaluations, physical examination, ultrasound examinations (mammary glands) and inhibin B. For pharmacokinetics, the concentrations of fispemifene and its metabolite(s) were to be evaluated. For pharmacodynamics, serum concentrations of FSH, LH, estradiol, testosterone, SHBG, prolactin, aldosterone, cortisol and TSH before and during treatment were measured and compared with the concentrations in the placebo-group.

[3] = system: LH; assay: Phase I repeated dose study 101-50202: serum LH
Excerpt: as §1, §2

[4] = 100 mg/day, Week 6 (2 weeks after discontinuation)
[5] = 200 mg/day, Week 6 (2 weeks after discontinuation)
[6] = 300 mg/day, Week 6 (2 weeks after discontinuation)

OCCOCCOc1ccc(/C(=C(/CCCl)c2ccccc2)c2ccccc2)cc1 [Fispemifene, (Z)-2-{2-[4-(4-Chloro-1,2-diphenylbut-1-enyl)phenoxy]ethoxy}ethanol]
Free Testosterone, Max ([1]; 100 mg/day, Baseline (Visit 2)): 12.20 ng/dL | Free Testosterone, Mean ± SD ([1]; 100 mg/day, Baseline (Visit 2)): 8.35 ± 2.536 ng/dL | Free Testosterone, Median ([1]; 100 mg/day, Baseline (Visit 2)): 8.40 ng/dL | Free Testosterone, Min ([1]; 100 mg/day, Baseline (Visit 2)): 3.20 ng/dL | Free Testosterone, Max ([1]; 100 mg/day, Week 2): 17.7 ng/dL | Free Testosterone, Mean ± SD ([1]; 100 mg/day, Week 2): 11.6 ± 3.93 ng/dL | Free Testosterone, Median ([1]; 100 mg/day, Week 2): 10.3 ng/dL | Free Testosterone, Min ([1]; 100 mg/day, Week 2): 5.7 ng/dL | Free Testosterone, Max ([1]; 100 mg/day, Week 4): 18.2 ng/dL | Free Testosterone, Mean ± SD ([1]; 100 mg/day, Week 4): 11.3 ± 3.40 ng/dL | Free Testosterone, Median ([1]; 100 mg/day, Week 4): 10.8 ng/dL | Free Testosterone, Min ([1]; 100 mg/day, Week 4): 6.4 ng/dL | Free Testosterone, Max [1, 4]: 13.30 ng/dL | Free Testosterone, Mean ± SD [1, 4]: 8.93 ± 0.023 ng/dL | Free Testosterone, Median [1, 4]: 9.80 ng/dL | Free Testosterone, Min [1, 4]: 4.90 ng/dL | Free Testosterone, % Change from Baseline, Mean ± SD ([1]; 100 mg/day, to Week 2): 0.4 ± 0.00387% | Free Testosterone, Max ([1]; 200 mg/day, Baseline (Visit 2)): 15.90 ng/dL | Free Testosterone, Mean ± SD ([1]; 200 mg/day, Baseline (Visit 2)): 8.48 ± 3.043 ng/dL | Free Testosterone, Median ([1]; 200 mg/day, Baseline (Visit 2)): 8.50 ng/dL | Free Testosterone, Min ([1]; 200 mg/day, Baseline (Visit 2)): 4.30 ng/dL | Free Testosterone, Max ([1]; 200 mg/day, Week 2): 16.4 ng/dL | Free Testosterone, Mean ± SD ([1]; 200 mg/day, Week 2): 10.6 ± 3.52 ng/dL | Free Testosterone, Median ([1]; 200 mg/day, Week 2): 10.0 ng/dL | Free Testosterone, Min ([1]; 200 mg/day, Week 2): 4.8 ng/dL | Free Testosterone, Max ([1]; 200 mg/day, Week 4): 19.4 ng/dL | Free Testosterone, Mean ± SD ([1]; 200 mg/day, Week 4): 11.8 ± 3.80 ng/dL | Free Testosterone, Median ([1]; 200 mg/day, Week 4): 12.2 ng/dL | Free Testosterone, Min ([1]; 200 mg/day, Week 4): 5.2 ng/dL | Free Testosterone, Max [1, 5]: 16.80 ng/dL | Free Testosterone, Mean ± SD [1, 5]: 9.10 ± 3.307 ng/dL | Free Testosterone, Median [1, 5]: 8.00 ng/dL | Free Testosterone, Min [1, 5]: 5.40 ng/dL | Free Testosterone, Max ([1]; 300 mg/day, Baseline (Visit 2)): 12.30 ng/dL | Free Testosterone, Mean ± SD ([1]; 300 mg/day, Baseline (Visit 2)): 8.19 ± 2.966 ng/dL | Free Testosterone, Median ([1]; 300 mg/day, Baseline (Visit 2)): 8.20 ng/dL | Free Testosterone, Max ([1]; 300 mg/day, Week 2): 22.0 ng/dL | Free Testosterone, Mean ± SD ([1]; 300 mg/day, Week 2): 12.1 ± 4.96 ng/dL | Free Testosterone, Median ([1]; 300 mg/day, Week 2): 12.9 ng/dL | Free Testosterone, Min ([1]; 300 mg/day, Week 2): 0.2 ng/dL | Free Testosterone, Max ([1]; 300 mg/day, Week 4): 21.2 ng/dL | Free Testosterone, Mean ± SD ([1]; 300 mg/day, Week 4): 12.5 ± 5.00 ng/dL | Free Testosterone, Median ([1]; 300 mg/day, Week 4): 14.0 ng/dL | Free Testosterone, Min ([1]; 300 mg/day, Week 4): 0.1 ng/dL | Free Testosterone, Max [1, 6]: 17.30 ng/dL | Free Testosterone, Mean ± SD [1, 6]: 9.30 ± 3.567 ng/dL | Free Testosterone, Median [1, 6]: 9.80 ng/dL | Free Testosterone, Min [1, 6]: 0.30 ng/dL | adverse events reported more than once ([2]; 10, 30, 100 and 300 mg daily for 28 days): upper respiratory tract infection, nausea and abdominal pain | tolerability ([2]; 10, 30, 100 and 300 mg daily for 28 days, all dose levels): well tolerated | safety concerns ([2]; any dose (10-300 mg/day)): no safety concerns | Serum LH, Mean ([3]; 10 mg/day, Baseline): 3.47 U/L | Serum LH, Mean ([3]; 10 mg/day, Day 8): 3.12 U/L | Serum LH, Mean ([3]; 10 mg/day, Day 15): 2.87 U/L | Serum LH, Mean ([3]; 10 mg/day, Day 22): 3.56 U/L | Serum LH, Mean ([3]; 10 mg/day, Day 28): 3.02 U/L | Serum LH, Mean ([3]; 30 mg/day, Baseline): 3.58 U/L | Serum LH, Mean ([3]; 30 mg/day, Day 8): 4.26 U/L | Serum LH, Mean ([3]; 30 mg/day, Day 15): 5.02 U/L | Serum LH, Mean ([3]; 30 mg/day, Day 22): 4.32 U/L | Serum LH, Mean ([3]; 30 mg/day, Day 28): 4.42 U/L | Serum LH, Mean ([3]; 100 mg/day, Baseline): 4.12 U/L | Serum LH, Mean ([3]; 100 mg/day, Day 8): 5.52 U/L | Serum LH, Mean ([3]; 100 mg/day, Day 15): 6.82 U/L | Serum LH, Mean ([3]; 100 mg/day, Day 22): 7.18 U/L | Serum LH, Mean ([3]; 100 mg/day, Day 28): 7.60 U/L | Serum LH, Mean ([3]; 300 mg/day, Baseline): 4.58 U/L | Serum LH, Mean ([3]; 300 mg/day, Day 8): 6.80 U/L | Serum LH, Mean ([3]; 300 mg/day, Day 15): 6.75 U/L | Serum LH, Mean ([3]; 300 mg/day, Day 22): 7.77 U/L | Serum LH, Mean ([3]; 300 mg/day, Day 28): 6.70 U/L | effect on serum concentration of LH ([3]; during the 28 days of treatment): increased
